From patent EP2272817A1, “PAI-1 INHIBITOR” (Institute of Medicinal Molecular Design, Inc., priority 2008, dated 2009)

Biological target: recombinant human PAI-1 (Homo sapiens, UniProt P05121)
Assay: Test Example 2: Human PAI-1 Inhibitory Activity (pH 7.4 HEPES buffer, 10 minutes incubation with two-chain tPA)
Type: biochemical
Parameters: purchased Molecular Innovations, Inc
Settings: concentration that inhibits 50 % of the human PAI-1 activity, calculated from the inhibition rates of Test Example 2; read-out: IC50
Method: 0.1 M HEPES, 0.1 M NaCl. 1 mM EDTA. 0.1 % Polyethylene glycol 8,000 (Hampton Research Corporation),
2 mM Dimethyldecylphoshine oxide [Apo-10] (Fluka Corporation)

Chain of recombinant human PAI-1 (P05121 24-402): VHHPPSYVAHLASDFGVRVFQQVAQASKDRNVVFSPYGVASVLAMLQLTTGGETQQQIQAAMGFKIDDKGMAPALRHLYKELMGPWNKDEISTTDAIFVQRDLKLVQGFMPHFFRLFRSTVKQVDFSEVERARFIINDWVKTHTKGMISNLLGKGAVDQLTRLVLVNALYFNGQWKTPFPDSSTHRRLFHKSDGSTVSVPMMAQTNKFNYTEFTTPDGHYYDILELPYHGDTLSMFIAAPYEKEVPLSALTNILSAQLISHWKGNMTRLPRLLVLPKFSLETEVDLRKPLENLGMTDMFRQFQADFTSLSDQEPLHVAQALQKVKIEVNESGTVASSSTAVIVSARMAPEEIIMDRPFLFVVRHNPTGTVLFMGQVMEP

SMILES | IC50 [µM]
CCCCCCCc1ccc(-c2ccc(OC(F)(F)F)cc2)cc1N(CCCCc1ccccc1)C(=O)C(=O)O [Compound 371] | 0.69

Same assay, conditions: read-out: Inhibition Rate of PAI-1 Activity (%)

SMILES | inhibition at 0.1 µM [%] | inhibition at 0.3 µM [%] | inhibition at 1 µM [%] | inhibition at 3 µM [%] | inhibition at 10 µM [%] | inhibition at 25 µM [%]
CCCCCOc1ccc(-c2ccc(OC(F)(F)F)cc2)cc1N(CCCOc1ccccc1)C(=O)C(=O)O [Compound 356] | 7 | 13 | 53 | > 99 | – | –
CCCCCOc1ccc(-c2ccc(OC(F)(F)F)cc2)cc1N(CCCSc1ccccc1)C(=O)C(=O)O [Compound 357] | 0 | 2 | 69 | > 99 | – | –
CCCCCN(C(=O)C(=O)O)c1cc(-c2ccc(OC(F)(F)F)cc2)ccc1OCCCCc1ccccc1 [Compound 358] | 0 | 10 | 55 | 98 | – | –
CCCCCOc1ccc(-c2ccc(F)cc2)cc1N(CCCCc1ccccc1)C(=O)C(=O)O [Compound 359] | 1 | 7 | 26 | 96 | – | –
CCCCCOc1ccc(-c2ccccc2)cc1N(CCCCc1ccccc1)C(=O)C(=O)O [Compound 360] | 5 | 8 | 35 | 92 | – | –
CCCCCOc1ccc(-c2ccc(Cl)cc2)cc1N(CCCCc1ccccc1)C(=O)C(=O)O [Compound 361] | 9 | 5 | 68 | 97 | – | –
CCCCCOc1cc(Oc2ccc(OC(F)(F)F)cc2)ccc1N(CCCCc1ccccc1)C(=O)C(=O)O [Compound 362] | 11 | 18 | 61 | > 99 | – | –
CCCCCOc1ccc(Oc2ccc(OC(F)(F)F)cc2)cc1N(CCCCc1ccccc1)C(=O)C(=O)O [Compound 363] | 2 | 4 | 72 | > 99 | – | –
CCCCCCCCCOc1ccc(-c2ccc(OC(F)(F)F)cc2)cc1N(CCCCc1ccccc1)C(=O)C(=O)O [Compound 364] | 41 | 94 | 97 | 92 | – | –
CCCCCCCCCCOc1ccc(-c2ccc(OC(F)(F)F)cc2)cc1N(CCCCc1ccccc1)C(=O)C(=O)O [Compound 365] | 41 | 97 | 97 | 92 | – | –
CCCCCOc1ccc(-c2ccc(OC(F)(F)F)cc2)cc1N(CCCCC)C(=O)C(=O)O [Compound 366] | 8 | 24 | 46 | 96 | – | –
CCCCCOc1cc(-c2ccc(OC(F)(F)F)cc2)ccc1N(CCCCc1ccccc1)C(=O)C(=O)O [Compound 367] | 10 | 26 | 52 | 94 | – | –
O=C(O)C(=O)N(CCCCc1ccccc1)c1cc(-c2ccc(OC(F)(F)F)cc2)ccc1OC1CCCCC1 [Compound 368] | 0 | 22 | 95 | 85 | – | –
CCC(CC)Oc1ccc(-c2ccc(OC(F)(F)F)cc2)cc1N(CCCCc1ccccc1)C(=O)C(=O)O [Compound 369] | 0 | 8 | 70 | 95 | – | –
O=C(O)C(=O)N(CCCCc1ccccc1)c1cc(-c2ccc(OC(F)(F)F)cc2)ccc1N1CCCCC1 [Compound 370] | 0 | 0 | 66 | 97 | – | –
CCCCCCCc1ccc(-c2ccc(OC(F)(F)F)cc2)cc1N(CCCCc1ccccc1)C(=O)C(=O)O [Compound 371] | 10 | 17 | 93 | 91 | – | –
CCCCCOc1cc(-c2ccc(OC(F)(F)F)cc2)cc(N(CCCCc2ccccc2)C(=O)C(=O)O)c1OCCCCC [Compound 372] | 2 | 27 | 97 | 93 | – | –
CC(C)(C)Oc1ccc(-c2ccc(OC(F)(F)F)cc2)cc1N(CCCCc1ccccc1)C(=O)C(=O)O [Compound 373] | 0 | 0 | 28 | 90 | – | –
CCCCCOc1ccc(-c2ccc(OC(F)(F)F)cc2)cc1N(CCCCOc1ccccc1)C(=O)C(=O)O [Compound 374] | 5 | 16 | 57 | > 99 | – | –
CCCCCCCCCCCCCCCOc1ccc(-c2ccc(OC(F)(F)F)cc2)cc1N(CCCCc1ccccc1)C(=O)C(=O)O [Compound 375] | 73 | 97 | > 99 | 79 | – | –
CCCCCOc1cc(-c2cccc(C)c2)ccc1N(CCCCc1ccccc1)C(=O)C(=O)O [Compound 376] | 6 | 15 | 62 | 95 | – | –

SMILES | inhibition at 0.1 µM [%] | inhibition at 0.3 µM [%] | inhibition at 1 µM [%] | inhibition at 3 µM [%] | inhibition at 10 µM [%] | inhibition at 25 µM [%]
CCCCCOc1cc(-c2cccc(C(F)(F)F)c2)ccc1N(CCCCc1ccccc1)C(=O)C(=O)O [Compound 377] | 1 | 23 | 83 | 94 | – | –
CCCCCOc1ccc(-c2cccc(C(F)(F)F)c2)cc1N(CCCCc1ccccc1)C(=O)C(=O)O [Compound 378] | 20 | 7 | 80 | 91 | – | –
CCCCCOc1ccc(-c2cccc(C)c2)cc1N(CCCCc1ccccc1)C(=O)C(=O)O [Compound 379] | 14 | 17 | 78 | 92 | – | –
CCCCCCCCCOc1cc(-c2ccc(OC(F)(F)F)cc2)ccc1N(CCCCc1ccccc1)C(=O)C(=O)O [Compound 380] | 76 | 96 | 97 | > 99 | – | –
O=C(O)C(=O)N(CCCCc1ccccc1)c1cc(-c2ccc(OC(F)(F)F)cc2)ccc1OCCCCC(F)(F)F [Compound 381] | 12 | 13 | 48 | > 99 | – | –
CCCCCOc1ccc(-c2ccc(OC(F)(F)F)cc2)cc1N(CCCCc1ccc(F)cc1)C(=O)C(=O)O [Compound 382] | 13 | 12 | 84 | 97 | – | –
O=C(O)C(=O)N(CCCCc1ccccc1)c1cc(-c2ccc(OC(F)(F)F)cc2)ccc1OCCC(F)(F)F [Compound 383] | 2 | 6 | 32 | 98 | – | –
CCCCCOc1ccc(-c2ccc(OC(F)(F)F)cc2)cc1N(CCCCc1ccc(Cl)cc1)C(=O)C(=O)O [Compound 384] | 0 | 11 | 91 | 95 | – | –
CCCCCCCCCCCCCCCOc1cc(-c2ccc(OC(F)(F)F)cc2)ccc1N(CCCCc1ccccc1)C(=O)C(=O)O [Compound 385] | 74 | > 99 | > 99 | > 99 | – | –
CCCCCCCOc1cc(-c2ccc(OC(F)(F)F)cc2)ccc1N(CCCCc1ccccc1)C(=O)C(=O)O [Compound 386] | 5 | 18 | > 99 | > 99 | – | –
CCCCCCCCCOc1ccc(N(CCCCc2ccccc2)C(=O)C(=O)O)cc1-c1ccc(OC(F)(F)F)cc1 [Compound 387] | 66 | > 99 | > 99 | > 99 | – | –
CCCCCCCCCOc1cc(N(Cc2ccc(C(C)(C)C)cc2)C(=O)C(=O)O)ccc1-c1ccc(OC(F)(F)F)cc1 [Compound 388] | 75 | > 99 | > 99 | > 99 | – | –
CCCCCCCCCOc1cc(N(CCCCc2ccccc2)C(=O)C(=O)O)ccc1-c1ccc(OC(F)(F)F)cc1 [Compound 389] | 65 | 97 | > 99 | > 99 | – | –
CCCCCOc1ccc(-c2ccc(C(F)(F)F)cc2)cc1N(CCCCc1ccccc1)C(=O)C(=O)O [Compound 390] | 4 | 12 | 79 | 87 | – | –
CCCCCOc1ccc(-c2cccc(OC(F)(F)F)c2)cc1N(CCCCc1ccccc1)C(=O)C(=O)O [Compound 391] | 10 | 8 | 69 | 89 | – | –
CCCCCOc1cc(-c2ccc(C(F)(F)F)cc2)ccc1N(CCCCc1ccccc1)C(=O)C(=O)O [Compound 392] | 7 | 14 | 77 | > 99 | – | –
CCCCCOc1cc(-c2cccc(OC(F)(F)F)c2)ccc1N(CCCCc1ccccc1)C(=O)C(=O)O [Compound 393] | 8 | 19 | 75 | 97 | – | –
CCCCCCCOc1ccc(N(CCCCc2ccccc2)C(=O)C(=O)O)cc1-c1ccc(OC(F)(F)F)cc1 [Compound 394] | 13 | 69 | 98 | > 99 | – | –
O=C(O)c1cc(-c2ccc(OC(F)(F)F)cc2)ccc1OCc1ccccc1 [Compound 401] | – | – | – | 15 | 17 | 53
CCCCOc1ccc(-c2ccc(OC(F)(F)F)cc2)cc1C=CC(=O)O [Compound 405] | – | – | 14 | 63 | > 99 | 95
